IC50 and inhibition data for 2 compounds are collected here from patent US20240287062A1, “NAPHTHYRIDONE COMPOUNDS FOR INHIBITION OF RAF KINASES AND/OR BCR-ABL TYROSINE KINASES” (Enliven Inc., priority 2021, published 2024).

For orientation: IC50 means the concentration that inhibits the measured activity by half. Usually inhibition stands for the percentage by which the read-out fell short of the control. A high value points to strong suppression.

Test [1] has as its target ABL1 (F317I) (Homo sapiens (Human), UniProt P00519, F317I). Kind of test: Radioactivity-based ABL kinase assay. In kind it is biochemical. Particulars: 100 μM 33P-ATP. The procedure: (§1) The following kinase assay was based on Anastassiadis et al (2011) Nat Biotech, 29:1039-1045. Briefly, ABL kinase substrate (ABLtide: EAIYAAPFAKKK; Genscript) was freshly prepared in reaction buffer (20 mM HEPES pH 7.5, 10 mM MgCl2, 1 mM EGTA, 0.02% Brij-35, 0.02 mg/ml BSA, 0.1 mM Na3VO4, 2 mM DTT, and 1% DMSO) to a final substrate concentration of 20 μM. ABL wild type and ABL mutant kinases were added to the substrate solution and mixed to the final enzyme concentrations shown in Table 3 below.
(§2) Serial dilutions of compounds were prepared in 100% DMSO Compounds or DMSO only (vehicle control) were then added to the kinase reaction mixture and incubated for 20 minutes at room temperature. 100 μM ^33P-ATP (specific activity 10 μCi/μl) was then added to the kinase reaction mixture to initiate the kinase reaction. This mixture was incubated for 2 hours at room temperature. Radioactivity was then measured by radioisotope filter-binding. Kinase activity data were expressed as the percent remaining kinase activity in test samples compared to vehicle control reactions. IC50 values and curve fits were obtained using a nonlinear regression model with a sigmoidal dose response (Prism GraphPad Software).

The target of test [2] is ABL1 (G250E) (Homo sapiens (Human), UniProt P00519, G250E). Kind of test: Radioactivity-based ABL kinase assay. Type of test: biochemical. Particulars: 100 μM 33P-ATP. The procedure:
as §1, §2

The target of test [3] is ABL1 (Homo sapiens (Human), UniProt P00519). Nature of the test: Radioactivity-based ABL kinase assay. Type of test: biochemical. Particulars: 100 μM 33P-ATP. The procedure: as §1, §2
Test [4] deals with ABL1 (Q252H) (Homo sapiens (Human), UniProt P00519, Q252H). Nature of the test: Radioactivity-based ABL kinase assay. Type of test: biochemical. The settings on record: 100 μM 33P-ATP. As to the method: as §1, §2
Test [5] deals with ABL1 (E255V) (Homo sapiens (Human), UniProt P00519, E255V). Nature of the test: Radioactivity-based ABL kinase assay. In kind it is biochemical. Particulars: 100 μM 33P-ATP. As to the method:
as §1, §2

The target in test [6] is ABL1 (H396P) (Homo sapiens (Human), UniProt P00519, H396P). Kind of test: Radioactivity-based ABL kinase assay. Particulars: 100 μM 33P-ATP. In kind it is biochemical. The procedure:
as §1, §2

Test [7] deals with ABL1 (Y253H) (Homo sapiens (Human), UniProt P00519, Y253H). Nature of the test: Radioactivity-based ABL kinase assay. In kind it is biochemical. Particulars: 100 μM 33P-ATP. The procedure: as §1, §2
Test [8] has as its target ABL1 (Y253F) (Homo sapiens (Human), UniProt P00519, Y253F). Kind of test: Radioactivity-based ABL kinase assay. Particulars: 100 μM 33P-ATP. In kind it is biochemical. The procedure:
as §1, §2

Test [9] has as its target ABL1 (T315I) (Homo sapiens (Human), UniProt P00519, T315I). Nature of the test: Radioactivity-based ABL kinase assay. In kind it is biochemical. Particulars: 100 μM 33P-ATP. The procedure:
as §1, §2

Test [10] addresses ABL1 (E255K) (Homo sapiens (Human), UniProt P00519, E255K). Kind of test: Radioactivity-based ABL kinase assay. In kind it is biochemical. The settings on record: 100 μM 33P-ATP. The procedure: as §1, §2
For test [11], the target named is ABL1 (F317L) (Homo sapiens (Human), UniProt P00519, F317L). Nature of the test: Radioactivity-based ABL kinase assay. Particulars: 100 μM 33P-ATP. In kind it is biochemical. As to the method: as §1, §2
The target in test [12] is ABL1 (M351T) (Homo sapiens (Human), UniProt P00519, M351T). Nature of the test: Radioactivity-based ABL kinase assay. In kind it is biochemical. Particulars: 100 μM 33P-ATP. As to the method: as §1, §2
Test [13] deals with ABL1 (V299L) (Homo sapiens (Human), UniProt P00519, V299L). Nature of the test: Radioactivity-based ABL kinase assay. Type of test: biochemical. Particulars: 100 μM 33P-ATP. The procedure: as §1, §2
Test [14] addresses PDGFRα (Homo sapiens (Human), UniProt P16234). Nature of the test: Luminescence-based PDGFRα kinase assay (Km ATP), ADP-Glo. In kind it is biochemical. The settings on record: compound at 100 nM concentration. The procedure: Kinase activity of PDGFRα was measured using the ADP-Glo system (Promega). Compounds were diluted in DMSO at 100 μM. 20 nL of compound or DMSO only (high control, HC) were added to a 384-well plate (OptiPlate-384, PerkinElmer) using an Echo550 liquid handler (Labcyte). 15 μL of kinase solution (10 mM MgCl2, 0.01% Brij-35, 2 mM DTT, 0.05% BSA, 1 mM EGTA, 50 mM HEPES pH 7.5, and 13.3 nM PDGFRα [Carna Biosciences]) were added to each well of the 384-well plate containing the compounds. No enzyme control wells were included (low control, LC). The plate was incubated at room temperature for 30 minutes. 5 μL of a second solution containing 10 mM MgCl2, 0.01% Brij-35, 2 mM DTT, 0.05% BSA, 1 mM EGTA, 50 mM HEPES pH 7.5, 0.8 μg/ml Poly(Glu-Tyr) (Sigma, Cat No 97105-00-5), and 120 μM ATP were added to each well to start the kinase reaction. The plate was incubated for 90 minutes at room temperature. 20 μL of ADP-Glo reagent (Promega) were then added to each well and the plate was incubated for 40 minutes at room temperature. […] During this step, ADP was converted to ATP, a substrate for luciferase, to produce luminescence signal. Luminescence was measured on an Envision plate reader (Perkin Elmer). Luminescence signal positively correlates with kinase activity. The percent inhibition of kinase activity was calculated as follows: percent inhibition=100×(LumHC−LumSample)/(LumHC−LumLC). […]
(In ADP-Glo the light output rises with the ADP produced.)

Test [15] concerns K562 cells. Kind of test: K562 cell proliferation assay (CellTiter-Glo). In kind it is cell-based. The settings on record: Homo sapiens; K562 cell line, 72 hours, cell viability. The procedure: K562 cells, cultured in Iscove's Modified Dulbecco's Media (IMDM) supplemented with 10% FBS, were harvested at 50-80% confluency and plated at 2,000 cells per well in 384-well tissue culture plates. A subset of wells contained media only (low control, LC). Compounds were serially diluted in DMSO. 40 nL of compound or DMSO only (high control, HC) were added to each well using an Echo 550 liquid handler (Labcyte). The plates were placed in a 37° C. incubator with 5% CO2 for 72 hours. Cell viability was measured using a CellTiter-Glo luminescent cell viability assay (Promega), which allows for relative quantification of metabolically active cells by luminescence-based measurements of intracellular ATP concentrations. Briefly, plates were removed from the incubator and equilibrated for 15 minutes at room temperature prior to the addition of 40 μL of CellTiter-Glo reagent. Plates were then incubated for 30 minutes at room temperature. Luminescence was measured using an EnSpire plate reader (Perkin Elmer). As noted above, luminescence values from wells with DMSO only or media without cells were used as high and low controls (HC and LC), respectively. Normalized percent viability was calculated as follows: percent viability=100×(LumSample−LumLC)/(LumHC−LumLC). IC50 values were calculated using the XLFit software.
In general terms: Cellular ATP, detected with luciferase, serves as a proxy for viable cell number.

PDGFRα, sequence (P16234 24-1089): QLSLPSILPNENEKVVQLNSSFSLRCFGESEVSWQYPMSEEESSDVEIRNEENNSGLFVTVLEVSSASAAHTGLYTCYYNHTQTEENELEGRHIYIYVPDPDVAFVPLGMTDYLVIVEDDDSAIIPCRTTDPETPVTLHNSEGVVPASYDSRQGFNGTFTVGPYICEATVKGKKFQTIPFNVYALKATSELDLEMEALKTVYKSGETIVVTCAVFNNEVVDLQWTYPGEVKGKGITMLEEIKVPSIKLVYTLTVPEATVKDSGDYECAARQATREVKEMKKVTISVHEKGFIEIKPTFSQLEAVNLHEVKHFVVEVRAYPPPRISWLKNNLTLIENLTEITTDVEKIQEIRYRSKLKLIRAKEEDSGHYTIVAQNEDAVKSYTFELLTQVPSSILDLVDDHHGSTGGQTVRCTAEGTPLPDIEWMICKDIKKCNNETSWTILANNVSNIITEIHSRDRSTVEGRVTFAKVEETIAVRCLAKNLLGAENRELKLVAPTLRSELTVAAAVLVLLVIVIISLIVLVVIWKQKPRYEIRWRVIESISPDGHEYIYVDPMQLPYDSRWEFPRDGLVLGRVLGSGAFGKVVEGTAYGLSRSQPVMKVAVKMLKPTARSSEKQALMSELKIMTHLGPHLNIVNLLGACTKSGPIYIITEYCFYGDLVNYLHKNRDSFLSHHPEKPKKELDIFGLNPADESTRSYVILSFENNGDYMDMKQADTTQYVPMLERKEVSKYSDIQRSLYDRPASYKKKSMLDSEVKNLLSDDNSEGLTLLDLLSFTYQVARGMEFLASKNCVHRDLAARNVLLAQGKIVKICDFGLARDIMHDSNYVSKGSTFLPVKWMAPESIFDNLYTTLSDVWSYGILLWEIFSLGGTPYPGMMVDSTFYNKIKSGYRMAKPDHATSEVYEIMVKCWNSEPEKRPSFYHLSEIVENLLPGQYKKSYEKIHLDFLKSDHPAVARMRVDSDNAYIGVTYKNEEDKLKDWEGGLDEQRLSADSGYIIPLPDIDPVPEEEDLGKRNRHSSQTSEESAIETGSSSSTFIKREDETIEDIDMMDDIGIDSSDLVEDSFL

Regarding `Cc1c(F)cncc1-c1cc2cnc(NC(=O)[C@@H]3C[C@@H]3F)cc2n(C)c1=O` [Compound 28, (1S,2S)-2-fluoro-N-[3-(5-fluoro-4-methylpyridin-3-yl)-1-methyl-2-oxo-1,6-naphthyridin-7-yl]cyclopropane-1-carboxamide], the IC50 in [1] came to 114 nM; in test [2], 3.7 nM; in test [3], 1.2 nM; in [4] it was 1.7 nM; in test [5], 1.4 nM; in [6], 1.4 nM. In addition, the IC50 in test [7] is 3.6 nM; in [8] it was 0.53 nM; in test [9], > 500 nM; in test [10], 3.4 nM; in test [11], 107 nM; in test [12], 4.5 nM. Further, the IC50 in test [13] was 0.19 nM; in test [15] it was 47 nM. For the same compound, in test [14], the inhibition at 0.1 µM worked out at 15%.
For `Cc1c(F)cncc1-c1cc2cnc(NC(=O)C3CC3)cc2n(C)c1=O` [Compound 2, N-[3-(5-fluoro-4-methylpyridin-3-yl)-1-methyl-2-oxo-1,6-naphthyridin-7-yl]cyclopropanecarboxamide], the IC50 was found to be 47 nM in [1]; 1.5 nM in test [2]; 0.61 nM in test [3]; 1.2 nM in [4]; 0.61 nM in [5]; 1.2 nM in test [6]. Besides, the IC50 in [7] is 0.93 nM; in test [8], < 0.51 nM; in test [9], 4400 nM; in [10] it was 2 nM; in [11], 17 nM; in test [12], 1.5 nM. The IC50 in [13] was < 0.51 nM; in test [15], 28 nM. Moreover, in test [14], the inhibition at 0.1 µM amounted to 33%.
